Experimental data published in patent US20040121946A9, “Inducing cellular immune responses to her2/neu using peptide and nucleic acid compositions” (priority 2002, published 2004).
Where two headings read alike, the source gives them in different places. Where no end group is shown, it is not given here.

Assays:
HLA-A*2402 = HLA-A*2402 (Homo sapiens, UniProt P04439, D101N/D140Y/D185E/E176V/E190D/F33S/G103R/G107R/I119L/I121M/I306V/K335N/L105A/L180Q/L300P/N151K/N90K/Q86E/Q94H/R106L/R138H/R89G/T104I/T345S/V100E/W191G/Y123F); format: binding; conditions: HLA-A24 motif-bearing peptides, Table XXVI
HLA-A*0101 = HLA-A*0101 (Homo sapiens, UniProt P04439, A114D/A174V/A182V/D101N/D185E/E176A/E190D/L180R/Q94H/R68K/S129P/T187R/V100A/V91M/W191G); format: binding; conditions: Table XXV, HLA-A1 motif-bearing peptides

| IC50 (HLA-A*2402) [µM] | Compound | other results |
| --- | --- | --- |
| 0.316 | TYLPTNASL | – |
| 0.48 | RWGLLLAL [RWGLLLAL] | – |
| – | CC(C)[C@H](NC(=O)[C@H](CS)NC(=O)[C@H](CCC(N)=O)NC(=O)[C@H](CC(=O)O)NC(=O)[C@H](C)NC(=O)[C@@H](N)CCC(=O)O)C(=O)N[C@@H](C)C(=O)N[C@@H](CS)C(=O)N[C@@H](C)C(=O)N[C@@H](Cc1c[nH]cn1)C(=O)N[C@@H](Cc1ccc(O)cc1)C(=O)O [Her2/neu.580] | IC50 (HLA-A*0101): 0.25 µM |
| – | CC(C)[C@H](NC(=O)[C@H](CS)NC(=O)[C@@H](NC(=O)[C@H](C)N)[C@@H](C)O)C(=O)N[C@H](C(=O)N[C@@H](C)C(=O)N[C@@H](CS)C(=O)N1CCC[C@H]1C(=O)N[C@@H](Cc1ccc(O)cc1)C(=O)O)[C@@H](C)O [Her2/neu.293.T2] | IC50 (HLA-A*0101; read-out: A*[…]): 0.049 µM |
